Laboratory results from patent publication US4156011A, “Sulphur- and oxygen-containing diaryl compounds” (priority 1974, dated 1979).
Where a name gives a salt, the structure may show the parent alone. Read-outs that look alike come from different tables or passages of the source.

Experiments:
[1] = test system: blood platelet aggregation; experiment: Anti-aggregation action in rats (graded / in words); assay type: in vivo; parameters: key to Anti-aggregation action: -: zero activity; +: significant activity; ++: intense activity; +++: very intense activity
From the text: (b) by ADP: the inhibition of aggregation (that is to say the % transmission).

[2] = Solubility of the isolated product
Clinical tests in man = assay type: in vivo; conditions: for treatment of hyperlipidaemia: man
Experimental: The clinical tests have made it possible to confirm the pharmacological tests. Thus, in man, CRL 40,293 (Example 23) in the form of gelatine-coated pills containing 400 mg of active ingredient administered at the rate of 2 such pills twice daily has given good results in the treatment of circulatory complaints and especially of lipid disturbances.
CRL 40,386 (Example 8) has been used in man for the treatment of hyperlipidaemia in the form of gelatine-coated pills each containing 300 mg of active ingredient at the rate of 2 to 6 such pills per day.

[3] = Reduction of lipids and cholesterol in rats treated orally; assay type: in vivo; conditions: for inhibition in vivo at 50 mg/kg: oral 50 mg/kg; for inhibition in vivo at 20 mg/kg: po, 120 h, 5 days
[4] = test system: platelets (aggregation induced by collagen); experiment: Anti-aggregation action, platelet aggregation induced by collagen; assay type: in vivo, male Wistar rats; conditions: 4 days
Experimental: (a) by collagen: the inhibition of aggregation (which corresponds to the % transmission), the latency period and the speed; and
In Table IV which follows have been shown the results relating to the anti-aggregation action of some products on the blood of male Wistar rats, the aggregating agents used being collagen/acetic acid diluted 1/10, and ADP at 1 μM.

[5] = Hypo-lipidaemic and hypo-cholesterolaemic action in rats on hyper-lipid diet; assay type: in vivo, Wistar rats; conditions: hyper-lipid diet; for inhibition at 10 mg/kg / inhibition at 25 mg/kg / inhibition at 100 mg/kg: Rattus norvegicus, normal diet = 100%, hyper-lipid diet = 0%
From the text: A. a batch of rats receiving a normal diet (percentage inhibition=100%);
B. a batch of rats receiving a hyper-lipid diet (percentage inhibition=0%);
C. a batch of rats receiving the hyper-lipid diet B with a daily dose, of 0.1 g/kg, of a reference product having a lipidaemia-normalising action, namely Lipavlon [ethyl 2-(p-chlorophenoxy)-2-methyl-propionate];
D. a batch of rats receiving the hyper-lipid diet B with a daily dose, of 0.1 g/kg, of another product having a lipidaemia-normalising action, namely LL 1558 [1,10-bis-(2-hydroxyethyl-thio)-decane]; and
E. a batch of rats receiving the hyper-lipid diet B with a daily dose of 10 mg/kg and 25 mg/kg, where necessary, higher doses.
In Table III which follows have been shown the results relating to CRL 40,201 (the product of Example 17) and CRL 40,202 (the product of Example 18) in respect of the hypo-lipidaemic action and hypo-cholesterolaemic action.

[6] = Hypo-lipidaemic and hypo-cholesterolaemic action of other products (Table V); assay type: in vivo, rats; conditions: Rattus norvegicus, 96 h; for change in vivo at 10 mg/kg: oral 10 mg/kg for 4 days; for change in vivo at 100 mg/kg: oral 100 mg/kg for 4 days
From the text: The results of the anti-aggregation test and of the hypo-[…] action and hypo-cholesterolaemic action tests of other products of the invention have been […] Table V which follows, the code used being the following (for each dose shown): […]

[7] = capsules or gelatine-coated pills of 500 mg, 2 to 4 per day
[8] = oral daily dose 0.010 g/kg, read-out: Total cholesterol % inhibition
[9] = oral daily dose 0.010 g/kg, read-out: Total lipids % inhibition
[10] = oral daily dose 0.025 g/kg, read-out: Total cholesterol % inhibition
[11] = oral daily dose 0.025 g/kg, read-out: Total lipids % inhibition
[12] = oral 200 mg/kg, collagen/acetic acid diluted 1/10
[13] = read-out: Total lipids (change)
[14] = oral daily dose 0.1 g/kg, read-out: Total cholesterol % inhibition
[15] = oral daily dose 0.1 g/kg, read-out: Total lipids % inhibition

Structure (SMILES): CC(CO)Sc1ccc(Oc2ccc(Cl)cc2)cc1 (racemic) [CRL 40,282, (±)-2-[4-(4-Chlorophenoxy)-phenylthio]-1-propanol]
- Anti-aggregation action ([1]; oral 100 mg/kg for 4 days): +
- solubility in water (in words) [2]: water-insoluble

Structure (SMILES): CC(CNCCO)Sc1ccc(Oc2ccc(Cl)cc2)cc1 (racemic) [CRL 40,283, (±)-N-Hydroxyethyl-2-[4-(4-chlorophenoxy)-phenylthio]-1-propylamine]
- Anti-aggregation action ([1]; oral 200 mg/kg for 4 days): +
- solubility in aqueous hydrochloric acid solution (in words) ([2]; aqueous hydrochloric acid, pH 3 to pH 7): soluble in an aqueous hydrochloric acid solution at between pH 3 and pH 7

Structure (SMILES): CC(CO)Oc1ccc(Oc2ccc(Cl)cc2)cc1 (racemic) [CRL 40,300, (±)-2-[4-(4-Chlorophenoxy)-phenoxy]-1-propanol]
- Anti-aggregation action ([1]; oral 100 mg/kg for 4 days): +
- solubility in water (in words) [2]: insoluble in water

Structure (SMILES): CC(COC(=O)C(C)(C)Oc1ccc(Sc2ccc(Cl)cc2)cc1)SCCCCCCCCCCSC(C)COC(=O)C(C)(C)Oc1ccc(Sc2ccc(Cl)cc2)cc1 (racemic) [CRL 40,387, (±)-2,15-Dimethyl-3,14-dithia-1,16-hexadecyl di-{2-[p-(p-chlorophenylthio)-phenoxy]-2-methylpropionate}]
- effect on the blood platelet aggregation ([1]; 10, 20 and 50 mg/kg orally): no effect

Structure (SMILES): CC(COC(=O)COc1ccc(Sc2ccc(Cl)cc2)cc1)SCCCCCCCCCCSC(C)COC(=O)COc1ccc(Sc2ccc(Cl)cc2)cc1 (racemic) [CRL 40,389, (±)-2,15-Dimethyl-3,14-dithia-1,16-hexadecyl di-[p-(p-chlorophenylthio)-phenoxy-acetate]]
- tolerance in man (Clinical tests in man; [7]): well tolerated
- treatment of hyperlipidaemia (Clinical tests in man; [7]): efficient
- inhibition in vivo at 50 mg/kg ([3]; Rattus norvegicus, 96 h, 4 days, read-out: reduction in the cholesterol): 35%
- inhibition in vivo at 50 mg/kg ([3]; Rattus norvegicus, 96 h, 4 days, read-out: reduction in the lipids): 35%

Structure (SMILES): CC(COC(=O)CSc1ccc(Oc2ccc(Cl)cc2)cc1)SCCCCCCCCCCSC(C)COC(=O)CSc1ccc(Oc2ccc(Cl)cc2)cc1 (racemic) [CRL 40,405, (±)-2,15-Dimethyl-3,14-dithia-1,16-hexadecyl di-[p-(p-chlorophenoxy)-phenylthio-acetate]]
- % transmission (collagen test) ([4]; 100 mg/kg): -10%
- latency time (collagen test) ([4]; 100 mg/kg, unit not given): +10
- speed (collagen test) ([4]; 100 mg/kg, unit not given): -17
- inhibition in vivo at 100 mg/kg ([3]; Rattus norvegicus, 96 h, oral 100 mg/kg, 4 days): 44%
- inhibition in vivo at 20 mg/kg ([3]; Rattus norvegicus, read-out: reduction in the cholesterol): 30%
- inhibition in vivo at 20 mg/kg ([3]; Rattus norvegicus, read-out: reduction in the lipids): 12%
- reduction in the (total) lipids ([3]; oral 100 mg/kg, 4 days): 35%

Structure (SMILES): CC(COC(=O)C(C)(C)Sc1ccc(Oc2ccc(Cl)cc2)cc1)SCCCCCCCCCCSC(C)COC(=O)C(C)(C)Sc1ccc(Oc2ccc(Cl)cc2)cc1 (racemic) [CRL 40,414, (±)-2,15-Dimethyl-3,14-dithia-1,16-hexadecyl di-{2-[p-(p-chlorophenoxy)-phenylthio]-2-methylpropionate}]
- treatment of hyperlipidaemia (Clinical tests in man; gelatine-coated pills of 300 mg, 3 per day): used with success
- reduction in the (total) lipids ([3]; oral 100 mg/kg, 4 days): 12%

Structure (SMILES): CC(C)(Oc1ccc(Sc2ccc(Cl)cc2)cc1)C(=O)O [CRL 40,201, 4-(4-Chlorophenylthio)-phenoxyisobutyric acid]
- inhibition at 10 mg/kg [5, 8]: 35%
- inhibition at 10 mg/kg [5, 9]: 30%
- inhibition at 25 mg/kg [5, 10]: 48%
- inhibition at 25 mg/kg [5, 11]: 45%
- Total cholesterol ([5]; oral daily dose 0.010 g/kg): 3.28 g/L
- Total lipids ([5]; oral daily dose 0.010 g/kg): 9 g/L
- Total cholesterol ([5]; oral daily dose 0.025 g/kg): 2.8 g/L
- Total lipids ([5]; oral daily dose 0.025 g/kg): 7.7 g/L

Structure (SMILES): CC(C)(Oc1ccc([S+]([O-])c2ccc(Cl)cc2)cc1)C(=O)O (stereo not shown) [CRL 40,202, 4-(4-Chlorophenylsulphinyl)-phenoxyisobutyric acid]
- inhibition at 10 mg/kg [5, 8]: 26%
- inhibition at 10 mg/kg [5, 9]: 27%
- inhibition at 25 mg/kg [5, 10]: 59%
- inhibition at 25 mg/kg [5, 11]: 53%
- Total cholesterol ([5]; oral daily dose 0.010 g/kg): 3.64 g/L
- Total lipids ([5]; oral daily dose 0.010 g/kg): 9.28 g/L
- Total cholesterol ([5]; oral daily dose 0.025 g/kg): 2.38 g/L
- Total lipids ([5]; oral daily dose 0.025 g/kg): 7.05 g/L

Structure (SMILES): CC(C)(Oc1ccc(Sc2ccc(Cl)cc2)cc1)C(=O)NCCO [CRL 40,251, N-Hydroxyethyl-4-(4-chlorophenylthio)-phenoxy-isobutyramide]
- change in aggregation, collagen, latency period [4, 12]: +23%
- change in aggregation, collagen, speed [4, 12]: -21%
- solubility in water (in words) [2]: insoluble in water

Structure (SMILES): CC(C)(Oc1ccc(Sc2ccc(Cl)cc2)cc1)C(=O)OCCSCCCCCCCCCCSCCOC(=O)C(C)(C)Oc1ccc(Sc2ccc(Cl)cc2)cc1 [CRL 40,253, 3,14-Dithia-1,16-hexadecyl di-[4-(4-chlorophenylthio)-phenoxyisobutyrate]]
- change in vivo at 10 mg/kg ([6]; read-out: Cholesterol (change)): -40%
- change in vivo at 10 mg/kg [6, 13]: -40%
- solubility in water (in words) [2]: insoluble in water

Structure (SMILES): CC(C)(CO)Oc1ccc(Oc2ccc(Cl)cc2)cc1 [CRL 40,310, 4-(4-Chlorophenoxy)-phenoxy-isobutanol]
- change in vivo at 100 mg/kg ([6]; read-out: Cholesterol (change)): -32%
- change in vivo at 100 mg/kg [6, 13]: -20%
- solubility in water (in words) [2]: insoluble in water

Structure (SMILES): CC(C)(COS(C)(=O)=O)Oc1ccc(Oc2ccc(Cl)cc2)cc1 [CRL 40,312, 4-(4-Chlorophenoxy)-phenoxy-isobutyl mesylate]
- Anti-aggregation action ([1]; oral 100 mg/kg for 4 days): +
- solubility in water (in words) [2]: insoluble in water

Structure (SMILES): Clc1ccc(Oc2ccc(OCC3=NCCN3)cc2)cc1 [CRL 40,322, 2-[4-(4-Chlorophenoxy)-phenoxy]-methyl-2-imidazoline hydrochloride]
- Anti-aggregation action ([1]; oral 100 mg/kg for 4 days): +
- solubility in hot water (in words) ([2]; hot water, hydrochloride): soluble in hot water

Structure (SMILES): CCN(CC)CCOc1ccc(Oc2ccc(Cl)cc2)cc1.Cl [CRL 40,330, N,N-Diethyl-2-[4-(4-chlorophenoxy)-phenoxy]-ethylamine hydrochloride]
- Anti-aggregation action ([1]; oral 100 mg/kg for 4 days): +
- change in vivo at 100 mg/kg ([6]; read-out: Cholesterol (change)): -13%
- change in vivo at 100 mg/kg [6, 13]: -13%

Structure (SMILES): CC(C)(O)COc1ccc(Oc2ccc(Cl)cc2)cc1 [CRL 40,332, 1-[4-(4-Chlorophenoxy)-phenoxy]-2-methyl-2-propanol]
- Anti-aggregation action ([1]; oral 100 mg/kg for 4 days): +
- solubility in water (in words) [2]: insoluble in water

Structure (SMILES): O=C(O)COc1ccc(Oc2ccc(Cl)cc2)cc1 [CRL 40,333, 4-(4-Chlorophenoxy)-phenoxyacetic acid]
- Anti-aggregation action ([1]; oral 100 mg/kg for 4 days): ++
- change in vivo at 100 mg/kg ([6]; read-out: Cholesterol (change)): -20%
- change in vivo at 100 mg/kg [6, 13]: -24%
- solubility in water (in words) [2]: insoluble in water

Structure (SMILES): CCN(CC)CCNC(=O)COc1ccc(Oc2ccc(Cl)cc2)cc1.Cl [CRL 40,334, N-(2-Diethylaminoethyl)-4-(4-chlorophenoxy)-phenoxy-acetamide hydrochloride]
- Anti-aggregation action ([1]; oral 100 mg/kg for 4 days): +++
- change in vivo at 100 mg/kg ([6]; read-out: Cholesterol (change)): -17%
- change in vivo at 100 mg/kg [6, 13]: -17%
- solubility in water (in words) [2]: soluble in water

Structure (SMILES): OCCSCCCCCCCCCCSCCO [LL 1558, 1,10-bis-(2-hydroxyethyl-thio)-decane, reference compound]
- inhibition at 100 mg/kg [5, 14]: 63%
- inhibition at 100 mg/kg [5, 15]: 54%
- Total cholesterol ([5]; oral daily dose 0.1 g/kg): 2.22 g/L
- Total lipids ([5]; oral daily dose 0.1 g/kg): 7 g/L

Structure (SMILES): CCOC(=O)C(C)(C)Oc1ccc(Cl)cc1 [Lipavlon, ethyl 2-(p-chlorophenoxy)-2-methyl-propionate, reference compound]
- inhibition at 100 mg/kg [5, 14]: 11%
- inhibition at 100 mg/kg [5, 15]: 14%
- Total cholesterol ([5]; oral daily dose 0.1 g/kg): 4.18 g/L
- Total lipids ([5]; oral daily dose 0.1 g/kg): 10.4 g/L
